{
  "source": "paper PMC9964544",
  "about": "“Evidence of Insulin-Sensitizing and Mimetic Activity of the Sesquiterpene Quinone Avarone, a Protein Tyrosine Phosphatase 1B and Aldose Reductase Dual Targeting Agent from the Marine Sponge Dysidea avara” (Pharmaceutics, 2023)",
  "key": {"human recombinant AKR1B1 [1]": {"molecular_target": "T1, human recombinant AKR1B1 (Homo sapiens, UniProt P15121)", "T1 construct": "made in house", "set-up": "method as in Demir et al. [17]", "settings": "ref Demir et al. [17]; cited from earlier work"}, "Human PTP1B [2]": {"molecular_target": "T2, Human PTP1B (Homo sapiens, UniProt P18031)", "T2 sequence (P18031 1-302)": "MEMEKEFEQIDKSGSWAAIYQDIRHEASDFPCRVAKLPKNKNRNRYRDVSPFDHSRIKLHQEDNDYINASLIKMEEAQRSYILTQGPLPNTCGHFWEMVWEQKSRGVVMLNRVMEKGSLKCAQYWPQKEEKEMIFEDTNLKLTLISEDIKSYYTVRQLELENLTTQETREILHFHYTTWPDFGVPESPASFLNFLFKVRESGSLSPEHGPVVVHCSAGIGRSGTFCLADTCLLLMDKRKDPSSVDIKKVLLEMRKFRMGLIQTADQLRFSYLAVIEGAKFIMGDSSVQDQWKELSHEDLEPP", "set-up": "polyHis (N); made in house", "settings": "cited from earlier work; for IC50: IC50 ± SD"}, "human recombinant AKR1B1 [3]": {"molecular_target": "T1, human recombinant AKR1B1", "test": "AKR1B1 inhibition assay with L-idose as substrate, NADPH oxidation (IC50)", "format": "biochemical", "settings": "10 mU AKR1B1, 1.6 mM L-idose, 37 °C; IC50 ± SD", "procedure": "(§1) The purification of human recombinant AKR1B1 was performed as previously described. […] The purified enzyme, stored at −80 °C in 10 mM sodium phosphate buffer pH 7.0 containing 2 mM DTT and 30% (w/v) glycerol, was extensively dialyzed against 10 mM sodium phosphate buffer pH 7.0 before use. […] The fractions containing PTP1B were collected, concentrated, and injected into a Superdex G75 column equilibrated with Tris-HCl buffer pH 8.0 containing 150 mM NaCl and 1 mM mercaptoethanol. The fractions containing PTP1B were collected and concentrated; the purity of preparation was evaluated using SDS-PAGE. The PTP1B preparation was split into fractions of 0.5 mL volume; each fraction was stored at −80 °C.\n(§2) The standard assay mixture (final volume 0.7 mL) was contained in 0.25 M sodium phosphate buffer pH 6.8, 0.18 mM NADPH, 0.4 M ammonium sulfate, 0.5 mM EDTA, and 4.7 mM GAL. One unit of enzyme activity is the amount of enzyme that catalyzes the conversion of 1 µmol of substrate/min in the above assay conditions. The same assay conditions were adopted in the inhibition studies using L-idose as the substrate at the indicated concentrations. PTP1B activity was determined using p-nitrophenylphosphate (pNPP) as the synthetic substrate. The pNPP was dissolved in 0.075 M ββ-dimethylglutarate buffer, pH 7.0, containing 1 mM dithiothreitol. Each assay was carried out at 37 °C in 1 mL of assay buffer. The reactions were started by diluting an aliquot of PTP1B preparation in the assay buffer; after 30 min, the reactions were stopped by adding 2 mL of 0.2 M KOH solution. The amount of p-nitrophenol released was determined spectrophotometrically, reading the absorbance of solutions at 400 nm (ε400nm = 18 mM^−^1cm^−^1)."}, "Human PTP1B [4]": {"molecular_target": "T2, Human PTP1B", "test": "PTP1B inhibition assay with pNPP as substrate (IC50)", "format": "biochemical", "set-up": "polyHis (N); made in house", "settings": "2.5 mM pNPP, 37 °C; IC50 ± SD", "procedure": "as §1, §2"}, "C2C12 cells [5]": {"test_system": "C2C12 cells", "test": "Glucose uptake assay (2-NBDG, flow cytometry) in C2C12 cells", "format": "cell-based", "settings": "2 h 10 mM cytochalasin B", "procedure": "To evaluate the impact of avarone (2) on the insulin signaling pathway, C2C12 cells were plated on P35 dishes and grown until 70% confluence. Then, cells were washed with phosphate-buffered saline (PBS) and incubated for 24 h in the presence of a starvation medium (DMEM high glucose containing 2 mM glutamine, 100 U/mL of penicillin, and 100 μg/mL of streptomycin). After this time, cells were stimulated for 30 min with 10 nM insulin (Humulin R, Ely Lilly, Italy) with avarone (2) or the insulin-avarone combination. After this time, cells were washed with cold PBS and lysed using 100 µL of 1X Laemmli sample buffer solution (50 mM Tris-HCl pH 6.8, 2% SDS, 10% glycerol, 1% β-mercaptoethanol, 12.5 mM EDTA, 0.02% bromophenol blue). Cell proteins were withdrawn, transferred in an Eppendorf tube and boiled for 5 min. All samples were stored at −20 °C before the analysis. Analysis of samples was carried out using SDS-PAGE; after electrophoresis, proteins were transferred on a PVDF membrane by Western blot. Phosphorylation levels of the insulin receptor β chain and of the kinase Akt were evaluated using specific antibodies: IR β subunit, clone CT-3 (MABS65) was from Santa Cruz Biotechnology (Santa Cruz, CA, USA); pIR β subunit, Y1162/1163 (sc-25103-R) was from Merck-Millipore (Burlington, MA, USA). Akt (9272S) and p-Akt (9271S) antibodies were from Cell Signaling Technology (Danvers, MA, USA). Finally, β-actin and clone C-4 (sc-47778) were from Merck-Millipore (Burlington, MA, USA). Anti-rabbit and anti-mouse secondary antibodies were from Santa Cruz Biotechnology (Santa Cruz, CA, USA). Detection was performed using Clarity western ECL substrates (BioRad Laboratories, Inc. 1000 Alfred Nobel DriveHercules, CA, USA). Quantitation of the images obtained was carried out using iBright Analysis Software (Thermo Fisher Scientific 168 Third Avenue Waltham, MA, USA, 02451). Glucose uptake was evaluated as previously described. […] Intrinsic and 2-NBDG-derived cell fluorescences were determined using a flow cytometer (FACSCanto II, BD Biosciences, San Jose, CA, USA). […] Quantitative analysis was carried out using FlowJo software (FlowJo^TM v10. BD FlowJo™ Software for Windows Version 10. Ashland, OR: Becton, Dickinson and Company; 2021).\nFigure 8 Glucose uptake assay. […] After, cells were washed with PBS, detached using trypsin, collected by centrifugation, and analyzed using a flow cytometer (FACSCanto II, BD Biosciences). […] For each experiment, 10,000 events were analyzed. […] (B) Quantitation of fluorescence levels. […]\nFigure 9 Impact of cytochalasin B on avarone-induced glucose uptake. […] After, cells were washed and incubated for 3 h with 40 µM 2-NBDG and then analyzed using a flow cytometer (FACSCanto II, BD Biosciences). For each experiment, 10,000 events were analyzed. […]"}, "3T3-L1 cells": {"test_system": "3T3-L1 cells", "set-up": "method as in PMID 19262557, PMID 19091557", "settings": "ref [24],[27]; cited from earlier work"}, "C2C12 cells [6]": {"test_system": "C2C12 cells", "test": "Seahorse XFe96 Mito Stress Test in C2C12 cells", "format": "cell-based", "settings": "affecting maximal respiration and ATP production-linked oxygen consumption", "procedure": "C2C12 cells (3 × 10^4 cells/well) were placed in XFe96 cell culture plates. After 24 h of incubation at 37 °C, cell growth medium was substituted with an XF base medium supplemented with 2 mM glutamine, 1 mM sodium pyruvate, and 10 mM glucose, pH 7.4. The plate was then transferred in a non-CO2 incubator for 1 h at 37 °C to pre-equilibrate the cells before analysis. An XF Mito Stress Test was performed to assay the cells’ ability to exploit mitochondrial oxidative metabolism, according to the manufacturer’s instructions. The oxygen consumption rate (OCR) was evaluated after the injection of a sequence of compounds that interfere with the electron transport chain: oligomycin (1 μM), carbonyl cyanide-4 (trifluoromethoxy) phenylhydrazone (FCCP) (1 μM), and Rotenone/Antimycin A (0.5 μM). All data were normalized on the protein content of each well.\nFigure 10 Results of Mito Stress Test assay. (A) C2C12 cells were subjected to Seahorse XFe96-Mito Stress Test analysis to evaluate oxygen consumption rate (OCR) in real time. OCR values were normalized on protein content. (B) Basal respiration, ATP-linked OCR, spare capacity, maximal respiration, and proton leak were calculated using data obtained from OCR plot after the administration of the adenosine triphosphate ATP synthase inhibitor oligomycin, the proton uncoupler carbonylcyanide p-trifluoromethoxyphenylhydrazone (FCCP), and the combination of the respiratory complex I inhibitor rotenone and the respiratory complex III inhibitor antimycin A. Each point reported in the OCR plot represents the medium value ± SEM obtained from independent replicates (n = 3 or 4). One-way ANOVA with Dunnett’s correction was used to assess differences in experimental features by using Prism 8 software (GraphPad). Statistical significance is annotated as follows: * p ≤ 0.01, ** p ≤ 0.001, *** p ≤ 0.0001, (t-test); ns, not significant; FC, fold change."}},
  "note": "Where two headings read alike, the source gives them in different places.",
  "data": [
    {"compound": "O=C1C=CC(=O)C=C1", "note": "[p-benzoquinone]", "values": [
      {"measurement": "IC50", "setting": "human recombinant AKR1B1 [1]", "value": 1.93, "unit": "µM"},
      {"measurement": "IC50", "setting": "Human PTP1B [2]; ref Zhang et al. [24]", "value": "38.9 ± 5.2", "unit": "µM"}
    ]},
    {"compound": "CC1=CCC[C@H]2[C@](C)(Cc3cc(O)ccc3O)[C@@H](C)CC[C@]12C", "note": "[avarol (1), avarol]", "values": [
      {"measurement": "IC50", "setting": "human recombinant AKR1B1 [3]", "value": "0.52 ± 0.19", "unit": "µM"},
      {"measurement": "IC50", "setting": "Human PTP1B [4]", "value": "42.2 ± 18", "unit": "µM"}
    ]},
    {"compound": "21-dehydroxybolinaquinone [21-dehydroxybolinaquinone (6)]", "values": [
      {"measurement": "IC50", "setting": "Human PTP1B [2]; ref Li et al. [27]", "value": 39.5, "unit": "µM"}
    ]},
    {"compound": "C=C1[C@@H](C)[C@H]2[C@H](Cc3ccccc3)NC(=O)[C@]23OC(=O)/C=C/[C@H](O)CCC[C@@H](C)C/C=C/[C@H]3[C@@H]1O", "note": "[Cytochalasin B, cytochalasin B, reference compound]", "values": [
      {"measurement": "effect of preincubation on insulin-stimulated glucose uptake", "setting": "C2C12 cells [5]; then 10 nM insulin 30 min", "value": "strongly affects insulin-stimulated glucose uptake"},
      {"measurement": "effect of preincubation on avarone-mediated glucose uptake", "setting": "C2C12 cells [5]; then 25 µM avarone 30 min", "value": "abolishes the avarone-mediated glucose uptake"}
    ]},
    {"compound": "CNC1=CC(=O)C(C[C@]2(C)[C@@H](C)CC[C@]3(C)C(C)=CCC[C@@H]23)=CC1=O", "note": "[4-methylaminoavarone (4), 4-(methylamino)avarone]", "values": [
      {"measurement": "IC50", "setting": "human recombinant AKR1B1 [3]", "value": "62 ± 8", "unit": "µM"},
      {"measurement": "IC50", "setting": "Human PTP1B [4]", "value": "21.6 ± 1", "unit": "µM"}
    ]},
    {"compound": "dysidine [dysidine (5)]", "values": [
      {"measurement": "glucose uptake in 3T3-L1 cells", "setting": "3T3-L1 cells", "value": "increase glucose uptake"},
      {"measurement": "IC50", "setting": "Human PTP1B [2]; ref Li et al. [27]", "value": "6.7 ± 0.1", "unit": "µM"},
      {"measurement": "selectivity over other PTPs (TC-PTP and CD45)", "setting": "Human PTP1B [2]; ref [24],[27]", "value": "moderate selectivity"},
      {"measurement": "type of PTP1B inhibition", "setting": "Human PTP1B [2]; ref [24],[27]", "value": "reversible slow-binding PTP1B inhibitor"}
    ]},
    {"compound": "N#C/C(=C\\c1cn(-c2ccccc2)c2ccccc12)C(=O)O", "note": "[UK5099, reference compound]", "values": [
      {"measurement": "mitochondrial respiration (OCR)", "setting": "C2C12 cells [6]", "value": "significant reduction in mitochondrial respiration"}
    ]},
    {"compound": "CNC1=CC(=O)C=C(C[C@]2(C)[C@@H](C)CC[C@]3(C)C(C)=CCC[C@@H]23)C1=O", "note": "[3-methylaminoavarone (3), 3-(methylamino)avarone]", "values": [
      {"measurement": "IC50", "setting": "human recombinant AKR1B1 [3]", "value": "73 ± 15", "unit": "µM"},
      {"measurement": "IC50", "setting": "Human PTP1B [4]", "value": "15.2 ± 2.1", "unit": "µM"}
    ]}
  ]
}
